Experimental data published in patent US5097013A, “Novel peptides possessing a macrophage chemotactic activity” (Kao Corporation, priority 1988, dated 1992).
Square brackets hold non-standard residues; d marks the D form. Peptide text beside a SMILES is read from it. * marks the point of attachment. Fmoc = O=C(OCC1c2ccccc2-c2ccccc21)*; dNle = CCCC[C@@H](N)C(=O)O

The compounds below were run on macrophage (peritoneal exudate cells) (assay: Macrophage chemotactic activity, 48 well chemotaxis chamber). Settings: Table 2; test described in Example 64; relative scale, Compound No. 1 = 100.
Type: cell-based, guinea pig
Procedure: Macrophage chemotactic activity in the examples was determined as follows.
Peritoneal exudate cells (usually more than 95% were macrophage) collected from guinea pig in which liquid paraffin had previously been peritoneally injected 3 or 4 days before were used as macrophage in a cell concentration of 2×10^6 /ml.
A sample which activity was to be determined was charged in lower wells of a 48 well chemotaxis chamber and a polycarbonate membrane having a pore size of 5 μm was put thereon, and the macrophage suspension was charged in upper wells followed by incubation at 37° C. for 90 minutes in a CO2 incubator. After the incubation, adherent cells on the non-chemotactic surface was removed, fixed and subjected to Giemsa staining and then to inclusion treatment. Then, the cells on the chemotactic surface were microscopically (×400) counted and the cell count was made MCF activity.
The peptide synthesized in Example 5 was dissolved in 5 mM MgCl2 and the solution was suitably diluted with 0.5% FCS-containing Hanks' medium.
For `CC(C)C[C@H](NC(=O)[C@H](Cc1c[nH]c2ccccc12)NC(=O)OCC1c2ccccc2-c2ccccc21)C(=O)NCC(=O)N[C@@H](CCCNC(=N)N)C(=O)N[C@@H](CCC(=O)O)C(=O)N[C@@H](CC(=O)O)C(=O)NCC(=O)N[C@@H](CO)C(=O)N[C@@H](CCC(=O)O)C(=O)O` [Compound 13, Fmoc-L-Trp-L-Leu-Gly-L-Arg-L-Glu-L-Asp-Gly-L-Ser-L-Glu-OH] (Fmoc-WLGREDGSE-OH), the “Activity (macrophage chemotactic activity)” value was under 10.
With `CC(C)C[C@H](NC(=O)[C@@H](N)Cc1c[nH]c2ccccc12)C(=O)NCC(=O)N[C@@H](CCCNC(=N)N)C(=O)O` [Compound 27, H-L-Trp-L-Leu-Gly-L-Arg-OH] (H-WLGR-OH) the “Activity (macrophage chemotactic activity)” value was under 10.
In the case of `CC(C)C[C@H](NC(=O)[C@H](Cc1c[nH]c2ccccc12)NC(=O)OCC1c2ccccc2-c2ccccc21)C(=O)NCC(=O)N[C@@H](CCCNC(=N)N)C(=O)N[C@@H](CCC(=O)O)C(=O)N[C@@H](CC(=O)O)C(=O)O` [Compound 29, Fmoc-L-Trp-L-Leu-Gly-L-Arg-L-Glu-L-Asp-OH] (Fmoc-WLGRED-OH), the “Activity (macrophage chemotactic activity)” value is reported as under 10.
For `CC(C)C[C@H](NC(=O)[C@@H](Cc1c[nH]c2ccccc12)NC(=O)OCC1c2ccccc2-c2ccccc21)C(=O)NCC(=O)N[C@@H](CCCNC(=N)N)C(=O)N[C@@H](CCC(=O)O)C(=O)N[C@@H](CC(=O)O)C(=O)O` [Compound 30, Fmoc-D-Trp-L-Leu-Gly-L-Arg-L-Glu-L-Asp-OH] (Fmoc-[dW]LGRED-OH), the “Activity (macrophage chemotactic activity)” value was under 10.
For `CC(C)C[C@@H](NC(=O)[C@H](Cc1c[nH]c2ccccc12)NC(=O)OCC1c2ccccc2-c2ccccc21)C(=O)NCC(=O)N[C@@H](CCCNC(=N)N)C(=O)N[C@@H](CCC(=O)O)C(=O)N[C@@H](CC(=O)O)C(=O)O` [Compound 32, Fmoc-L-Trp-D-Leu-Gly-L-Arg-L-Glu-L-Asp-OH] (Fmoc-W[dL]GRED-OH), the “Activity (macrophage chemotactic activity)” value was under 10.
`CC(C)C[C@H](NC(=O)[C@H](Cc1c[nH]c2ccccc12)NC(=O)OCC1c2ccccc2-c2ccccc21)C(=O)NCC(=O)N[C@@H](CCCNC(=N)N)C(=O)N[C@H](CCC(=O)O)C(=O)N[C@@H](CC(=O)O)C(=O)O` [Compound 34, Fmoc-L-Trp-L-Leu-Gly-L-Arg-D-Glu-L-Asp-OH] (Fmoc-WLGR[dE]D-OH) was tested, and the “Activity (macrophage chemotactic activity)” value was under 10.
`CC(C)C[C@H](NC(=O)[C@H](Cc1c[nH]c2ccccc12)NC(=O)OCC1c2ccccc2-c2ccccc21)C(=O)NCC(=O)N[C@@H](CCCNC(=N)N)C(=O)N[C@@H](CCC(=O)O)C(=O)N[C@H](CC(=O)O)C(=O)O` [Compound 39, Fmoc-L-Trp-L-Leu-Gly-L-Arg-L-Glu-D-Asp-OH] (Fmoc-WLGRE[dD]-OH) was tested, and the “Activity (macrophage chemotactic activity)” value was 10.
H-FLGREDGSE-OH [Compound 7] was tested, and the “Activity (macrophage chemotactic activity)” value was under 10.
With H-KWLGREDGSE-OH [Compound 3] the “Activity (macrophage chemotactic activity)” value was 80.
For “H-L-Glu-L-Asp-Gly-L-Ser-L-Glu-OH [Compound 25]”, the “Activity (macrophage chemotactic activity)” value was under 10.
With “H-L-Trp-L-AIa-Gly-L-Arg-L-Glu-L-Asp-Gly-L-Ser-L-Glu-NH2 [Compound 44]” the “Activity (macrophage chemotactic activity)” value was under 10.
With “H-L-Trp-L-Leu-Gly-L-Arg-L-Glu-OH [Compound 24]” the “Activity (macrophage chemotactic activity)” value was under 10.
For H-LGREDGSE-OH [Compound 51], the “Activity (macrophage chemotactic activity)” value was under 10.
For H-MWLGRED-OH [Compound 47], the “Activity (macrophage chemotactic activity)” value was under 10.
With H-WAGRED-OH [Compound 42] the “Activity (macrophage chemotactic activity)” value was under 10.
In the case of H-WAGREDGSE-OH [Compound 9], the “Activity (macrophage chemotactic activity)” value is reported as under 10.
H-WGGREDGSE-OH [Compound 52] was tested, and the “Activity (macrophage chemotactic activity)” value was under 10.
In the case of H-WIIREDGSE-OH [Compound 43], the “Activity (macrophage chemotactic activity)” value is reported as under 10.
In the case of H-WLGKEDGSE-OH [Compound 8], the “Activity (macrophage chemotactic activity)” value is reported as under 10.
H-WLGLEDGSE-OH [Compound 49] was tested, and the “Activity (macrophage chemotactic activity)” value was 10.
For H-WLGRED-NH2 [Compound 26], the “Activity (macrophage chemotactic activity)” value was 10.
In the case of H-WLGRED-OH [Compound 23], the “Activity (macrophage chemotactic activity)” value is reported as 10.
In the case of H-WLGREDG-OH [Compound 22], the “Activity (macrophage chemotactic activity)” value is reported as under 10.
H-WLGREDGAE-OH [Compound 20] was tested, and the “Activity (macrophage chemotactic activity)” value was under 10.
With H-WLGREDGCE-OH [Compound 17] the “Activity (macrophage chemotactic activity)” value was under 10.
With H-WLGREDGLL-NH2 [Compound 46] the “Activity (macrophage chemotactic activity)” value was under 10.
In the case of H-WLGREDGS-OH [Compound 21], the “Activity (macrophage chemotactic activity)” value is reported as 10.
H-WLGREDGSD-OH [Compound 4] was tested, and the “Activity (macrophage chemotactic activity)” value was 10.
H-WLGREDGSE-NH2 [Compound 12] was tested, and the “Activity (macrophage chemotactic activity)” value was under 10.
“H-WLGREDGSE-OH [Compound 1, H-L-Trp-L-Leu-Gly-L-Arg-L-Glu-L-Asp-Gly-L-Ser-L-Glu-OH]” was tested, and the “Activity (macrophage chemotactic activity)” value was 100.
With H-WLGREDGSQ-OH [Compound 28] the “Activity (macrophage chemotactic activity)” value was under 10.
In the case of H-WLGREDG[dS]E-OH [Compound 36], the “Activity (macrophage chemotactic activity)” value is reported as under 10.
In the case of H-WLGREEGS-OH [Compound 38], the “Activity (macrophage chemotactic activity)” value is reported as under 10.
In the case of H-WLGRENGSE-OH [Compound 5], the “Activity (macrophage chemotactic activity)” value is reported as under 10.
With “H-WLGRGDGSE-OH [Compound 48, H-L-Trp-L-Leu-Gly-L-Arg-Gly-L-Asp-Gly-L-Ser-L-Glu-OH]” the “Activity (macrophage chemotactic activity)” value was under 10.
In the case of H-WLGRQDGSE-OH [Compound 2], the “Activity (macrophage chemotactic activity)” value is reported as 80.
“H-WLGRQNGSQ-NH2 [Compound 11, H-L-Trp-L-Leu-Gly-L-Arg-L-Gln-L-Asn-Gly-L-Ser-L-Gln-NH2]” was tested, and the “Activity (macrophage chemotactic activity)” value was under 10.
In the case of H-WLGR[dE]DGSE-OH [Compound 41], the “Activity (macrophage chemotactic activity)” value is reported as under 10.
H-WLGYEDGSE-OH [Compound 18] was tested, and the “Activity (macrophage chemotactic activity)” value was 50.
For H-WLG[dR]EDGSE-OH [Compound 14], the “Activity (macrophage chemotactic activity)” value was 80.
With H-WLIREDGSE-OH [Compound 6] the “Activity (macrophage chemotactic activity)” value was under 10.
In the case of H-WPREDGSE-OH [Compound 10], the “Activity (macrophage chemotactic activity)” value is reported as under 10.
H-WVREDGSE-OH [Compound 50] was tested, and the “Activity (macrophage chemotactic activity)” value was under 10.
For H-W[dL]GREDGSE-OH [Compound 37], the “Activity (macrophage chemotactic activity)” value was under 10.
In the case of H-W[dNle]GREDGSE-OH [Compound 15], the “Activity (macrophage chemotactic activity)” value is reported as under 10.
H-[dW]LGREDGSE-OH [Compound 16] was tested, and the “Activity (macrophage chemotactic activity)” value was under 10.

Same assay, conditions: dissolved in 5 mM MgCl2, diluted with 0.5% FCS-containing Hanks' medium
For “H-WLGREDGSE-OH [Compound 1, H-L-Trp-L-Leu-Gly-L-Arg-L-Glu-L-Asp-Gly-L-Ser-L-Glu-OH]”, the “macrophage chemotactic activity (in words)” value was “high activities”.

Same assay, conditions: relative activity, Table 1 (culture supernatant of hybridoma MCF-A51 = 100.0, medium alone 10.0); 3 × 10^-8 M; dissolved in 5 mM MgCl2, diluted with 0.5% FCS-containing Hanks' medium
In the case of “H-WLGREDGSE-OH [Compound 1, H-L-Trp-L-Leu-Gly-L-Arg-L-Glu-L-Asp-Gly-L-Ser-L-Glu-OH]”, the “Macrophage Chemotactic Activity” value is reported as 41.4.
